Measured values: ChEMBL document CHEMBL1201862, “PubChem BioAssay data set” (2004)
The source made the active and inactive calls.

Columns and labels:
BJ [1] = experiment: cells; format: functional, cell-based; conditions: Homo sapiens
[2] = molecular target: T1, Heat shock factor protein 1 (Mus musculus, UniProt P38532); experiment: inhibition of MG132-induced HSE-luciferase signal, confirmation, cell-based, NIH3T3, luminescence, dose retest (AID 2382); format: functional;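 further: NIH3T3 fibroblasts with HSF1-driven luciferase reporter stressed by proteasome inhibitor MG132; luminescence from HSF1-driven luciferase expression after 8 hours of MG132 stress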
T1 sequence (P38532 whole entry): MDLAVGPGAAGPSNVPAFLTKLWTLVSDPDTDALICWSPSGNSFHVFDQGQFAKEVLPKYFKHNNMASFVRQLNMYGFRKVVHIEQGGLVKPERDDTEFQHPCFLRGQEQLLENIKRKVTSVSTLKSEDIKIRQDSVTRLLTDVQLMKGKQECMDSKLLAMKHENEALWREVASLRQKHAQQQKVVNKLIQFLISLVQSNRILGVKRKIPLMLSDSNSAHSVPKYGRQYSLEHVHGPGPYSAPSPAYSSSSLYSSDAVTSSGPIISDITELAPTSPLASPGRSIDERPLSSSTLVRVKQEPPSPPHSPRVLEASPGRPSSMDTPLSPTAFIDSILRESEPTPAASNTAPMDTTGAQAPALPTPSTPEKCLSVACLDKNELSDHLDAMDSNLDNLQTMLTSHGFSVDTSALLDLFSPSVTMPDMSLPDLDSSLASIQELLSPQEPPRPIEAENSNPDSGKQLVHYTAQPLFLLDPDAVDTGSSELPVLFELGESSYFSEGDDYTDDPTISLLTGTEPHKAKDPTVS

BJ [3] = experiment: cytotoxicity toward Ras-transformed BJeLR fibroblasts, dose response, cell-based, alamar blue fluorescence, cherrypicked samples (AID 2631); format: functional; conditions: Homo sapiens;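 further: confirmatory dose-response assay in RAS-dependent BJ fibroblasts engineered with TERT, LT and ST, with cytotoxicity read by fluorescence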
[4] = Intein inhibitors as potential Tuberculosis drugs, a cytotoxicity screen. [Related pubchem assays (depositor defined):AID2221, AID2223, AID434968, AID435010, AID449749, AID449750, AID489010]; format: functional
[5] = molecular target: T2, Sentrin-specific protease 8 (Homo sapiens, UniProt Q96LD8); experiment: SENP8 protease inhibitors, SAR follow-up, biochemical, luminescence, set 2 (AID 588601); format: functional
T2 sequence (Q96LD8 whole entry): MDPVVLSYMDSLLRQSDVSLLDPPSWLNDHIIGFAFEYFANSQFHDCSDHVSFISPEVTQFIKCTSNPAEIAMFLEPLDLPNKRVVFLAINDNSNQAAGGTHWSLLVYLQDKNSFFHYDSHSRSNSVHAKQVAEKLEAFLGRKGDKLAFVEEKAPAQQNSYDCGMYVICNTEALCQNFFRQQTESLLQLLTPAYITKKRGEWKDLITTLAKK

Caspase-3 [6] = molecular target: T3, Caspase-3 (Homo sapiens, UniProt P42574); experiment: SAR Analysis of small molecule inhibitors of Sentrin-specific proteases (SENPs) using a Caspase-3 Selectivity assay. [Related pubchem assays (depositor defined):AID2540, AID2599, AID434973, AID489001]; format: functional
T3 sequence (P42574 whole entry): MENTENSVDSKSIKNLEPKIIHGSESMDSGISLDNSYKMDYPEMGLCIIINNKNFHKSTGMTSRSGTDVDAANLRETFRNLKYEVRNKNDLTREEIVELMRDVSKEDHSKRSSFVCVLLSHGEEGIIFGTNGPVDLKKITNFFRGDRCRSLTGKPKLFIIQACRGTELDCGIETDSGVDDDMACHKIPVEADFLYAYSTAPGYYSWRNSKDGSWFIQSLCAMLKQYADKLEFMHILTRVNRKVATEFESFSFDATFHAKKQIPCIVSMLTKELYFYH

Caspase-3 [7] = molecular target: T3, Caspase-3; format: functional
[8] = molecular target: T4, Sentrin-specific protease 6 (Homo sapiens, UniProt Q9GZR1); format: functional;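 further: Luminescence-based dose-response confirmatory assay of SENP6 inhibition, following up an ultra-high-throughput screen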
T4 sequence (Q9GZR1 whole entry): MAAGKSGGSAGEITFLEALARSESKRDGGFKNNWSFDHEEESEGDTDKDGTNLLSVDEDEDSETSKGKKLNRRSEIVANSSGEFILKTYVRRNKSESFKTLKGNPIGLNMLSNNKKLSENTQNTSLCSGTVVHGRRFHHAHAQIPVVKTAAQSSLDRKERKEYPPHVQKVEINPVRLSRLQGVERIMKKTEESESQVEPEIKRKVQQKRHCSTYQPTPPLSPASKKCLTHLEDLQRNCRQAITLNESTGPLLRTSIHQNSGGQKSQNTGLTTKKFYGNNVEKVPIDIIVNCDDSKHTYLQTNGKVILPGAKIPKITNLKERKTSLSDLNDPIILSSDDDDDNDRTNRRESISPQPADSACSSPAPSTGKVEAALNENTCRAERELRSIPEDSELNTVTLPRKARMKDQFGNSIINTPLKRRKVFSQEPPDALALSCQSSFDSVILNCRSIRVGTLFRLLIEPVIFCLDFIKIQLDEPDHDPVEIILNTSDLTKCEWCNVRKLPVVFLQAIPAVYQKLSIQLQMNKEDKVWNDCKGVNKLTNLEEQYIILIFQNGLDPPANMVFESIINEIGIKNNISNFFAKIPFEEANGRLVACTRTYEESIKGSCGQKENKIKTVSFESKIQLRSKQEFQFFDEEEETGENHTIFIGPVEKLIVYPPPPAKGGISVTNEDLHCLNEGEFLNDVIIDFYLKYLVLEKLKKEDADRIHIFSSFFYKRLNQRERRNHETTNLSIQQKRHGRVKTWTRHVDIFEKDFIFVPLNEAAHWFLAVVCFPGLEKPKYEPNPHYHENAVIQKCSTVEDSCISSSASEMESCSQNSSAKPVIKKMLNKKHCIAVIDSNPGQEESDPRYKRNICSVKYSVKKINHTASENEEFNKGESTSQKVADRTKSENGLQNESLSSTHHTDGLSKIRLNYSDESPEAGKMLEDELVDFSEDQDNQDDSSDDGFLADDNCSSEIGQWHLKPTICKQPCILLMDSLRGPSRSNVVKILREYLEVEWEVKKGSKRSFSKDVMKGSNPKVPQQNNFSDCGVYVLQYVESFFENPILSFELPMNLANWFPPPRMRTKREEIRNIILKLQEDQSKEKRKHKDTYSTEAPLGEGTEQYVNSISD

HEK293 = experiment: cells; format: functional, cell-based; conditions: Homo sapiens
Nonstructural protein 1 = Nonstructural protein 1 (Influenza A virus, UniProt Q194T2); format: functional, Influenza A virus (A/California/07/2009(H1N1))
Sequence of Nonstructural protein 1 (Q194T2 whole entry): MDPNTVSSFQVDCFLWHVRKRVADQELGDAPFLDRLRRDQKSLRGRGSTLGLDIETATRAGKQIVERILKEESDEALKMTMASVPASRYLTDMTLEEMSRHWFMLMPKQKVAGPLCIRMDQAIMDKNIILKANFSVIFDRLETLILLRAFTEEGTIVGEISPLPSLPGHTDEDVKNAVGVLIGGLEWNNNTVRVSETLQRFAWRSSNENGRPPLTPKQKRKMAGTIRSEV

[9] = molecular target: Polyadenylate-binding protein 1 (Homo sapiens, UniProt P11940); experiment: PABP1 MLLE–PAM2 interaction inhibitors, dose response, miRNA deadenylation inhibitor project, biochemical, fluorescence polarization, Cy5-PAM2 peptide, secondary (AID 602260); format: functional; conditions: read-out: IC50_Mean
Sequence of Polyadenylate-binding protein 1 (P11940 whole entry): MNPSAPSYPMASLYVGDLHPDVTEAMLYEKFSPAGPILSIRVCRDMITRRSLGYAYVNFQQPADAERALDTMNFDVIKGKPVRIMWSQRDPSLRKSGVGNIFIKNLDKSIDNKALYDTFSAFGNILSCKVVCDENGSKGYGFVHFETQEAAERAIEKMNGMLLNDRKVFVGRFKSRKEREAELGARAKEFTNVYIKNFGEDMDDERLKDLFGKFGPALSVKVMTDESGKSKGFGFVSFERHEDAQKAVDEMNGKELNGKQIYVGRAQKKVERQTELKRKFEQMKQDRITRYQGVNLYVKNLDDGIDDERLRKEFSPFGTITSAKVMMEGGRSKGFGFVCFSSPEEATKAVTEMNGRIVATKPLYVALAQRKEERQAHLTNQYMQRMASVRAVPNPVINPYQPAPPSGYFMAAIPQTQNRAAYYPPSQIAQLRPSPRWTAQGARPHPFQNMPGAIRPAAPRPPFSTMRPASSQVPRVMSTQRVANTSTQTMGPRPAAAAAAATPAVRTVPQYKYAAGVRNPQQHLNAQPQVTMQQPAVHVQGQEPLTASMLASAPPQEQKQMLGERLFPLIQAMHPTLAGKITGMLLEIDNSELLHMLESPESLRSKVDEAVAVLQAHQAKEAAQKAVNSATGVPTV
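Wherever CC50 is given: cells exposed to compound for 72 hours before luminescence readout.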

For Cc1nn(-c2ccccc2)c(Cl)c1CN(C(=O)CCl)c1ccc(Cl)cc1, the EC50 (BJ [1]) was 2.82 µM (inconclusive), the EC50 [2] was 1.57 µM (active) and the EC50 (BJ [3]) was 0.515 µM (active). The CC50 [4] was 2.06 µM (active).
In the case of Oc1ccccc1/C=C/c1noc(-c2ccccc2O)n1, the IC50 [5] is reported as 43 µM (active), the IC50 (Caspase-3 [6]) is reported as 21 µM (active) and the IC50 (Caspase-3 [7]) is reported as 39.7 µM (active). The IC50 [8] was > 100 µM (inactive) and the IC50 (HEK293) was > 67.5 µM (inactive).
With Cc1cccc(N=Nc2ccc(N(C)C)cc2)c1 the IC50 (Caspase-3 [7]) was 5.57 µM (active), the IC50 [8] was 4.4 µM (active) and the IC50 (Nonstructural protein 1) was 31.6 µM (active).
For O=C(O)CSc1cc(NS(=O)(=O)c2ccc(Cl)cc2)c2ccccc2c1O, the IC50 [9] was > 66 µM (inactive).
For COc1ccccc1N1C(=O)Cc2ccccc2C1=O, the IC50 (Caspase-3 [7]) was 4.61 µM (active) and the IC50 [8] was 10.6 µM (active).
